Measured values taken from ChEMBL document CHEMBL5465560, “Selectivity Literature for EUbOPEN Chemogenomic Library” (2024).

Legend:
[1] = biological target: T1, Histone-arginine methyltransferase CARM1 (Homo sapiens, UniProt Q86X55); assay: Selectivity interaction (Western Blot (dimethylation of BAF155 (BAF155me2a/BAF155) in KMS-27 cells)) EUB0000255b CARM1; type: cell-based
T1 sequence (Q86X55 whole entry): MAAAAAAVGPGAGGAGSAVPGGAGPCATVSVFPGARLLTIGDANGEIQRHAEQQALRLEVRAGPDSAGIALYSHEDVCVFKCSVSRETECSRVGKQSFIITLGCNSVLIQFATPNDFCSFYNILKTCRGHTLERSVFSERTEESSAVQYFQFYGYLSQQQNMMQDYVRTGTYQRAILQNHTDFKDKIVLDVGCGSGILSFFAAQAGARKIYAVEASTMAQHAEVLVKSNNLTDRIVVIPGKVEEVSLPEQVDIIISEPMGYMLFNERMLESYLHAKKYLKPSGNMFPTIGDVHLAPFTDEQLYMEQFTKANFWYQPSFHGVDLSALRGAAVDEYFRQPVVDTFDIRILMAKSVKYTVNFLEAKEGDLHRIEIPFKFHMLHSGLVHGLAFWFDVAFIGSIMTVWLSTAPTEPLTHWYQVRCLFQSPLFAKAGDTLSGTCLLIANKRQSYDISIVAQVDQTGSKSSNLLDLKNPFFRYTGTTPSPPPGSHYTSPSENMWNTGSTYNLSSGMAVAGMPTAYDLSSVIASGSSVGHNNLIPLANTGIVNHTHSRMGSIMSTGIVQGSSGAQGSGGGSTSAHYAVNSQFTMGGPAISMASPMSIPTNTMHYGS

[2] = biological target: T2, Serine/threonine-protein kinase NLK (Homo sapiens) (UniProt Q9UBE8); assay: Selectivity interaction (KinomeScan (DiscoverX)) EUB0000229b NLK; conditions: at 10 µM
T2 sequence (whole entry): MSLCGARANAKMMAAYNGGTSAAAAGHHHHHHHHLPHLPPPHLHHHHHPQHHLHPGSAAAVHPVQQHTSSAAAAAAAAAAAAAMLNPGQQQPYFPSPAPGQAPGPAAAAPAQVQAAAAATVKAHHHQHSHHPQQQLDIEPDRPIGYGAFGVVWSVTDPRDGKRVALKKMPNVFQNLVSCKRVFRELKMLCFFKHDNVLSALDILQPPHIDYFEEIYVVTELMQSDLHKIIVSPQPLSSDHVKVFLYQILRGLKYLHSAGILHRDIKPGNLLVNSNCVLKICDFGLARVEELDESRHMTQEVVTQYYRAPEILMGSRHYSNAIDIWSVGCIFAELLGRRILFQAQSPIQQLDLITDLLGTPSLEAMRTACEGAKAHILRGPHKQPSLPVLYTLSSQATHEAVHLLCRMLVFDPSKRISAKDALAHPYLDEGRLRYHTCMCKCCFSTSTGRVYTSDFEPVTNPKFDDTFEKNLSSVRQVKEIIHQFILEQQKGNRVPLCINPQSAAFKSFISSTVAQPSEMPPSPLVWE

[3] = biological target: Tyrosine-protein kinase ABL2 (Homo sapiens, UniProt P42684); assay: Selectivity interaction (KinomeScan (DiscoverX)) EUB0000655a ABL2; conditions: at 10 µM
[4] = biological target: Serine/threonine-protein kinase 24 (Homo sapiens) (UniProt Q9Y6E0); assay: Selectivity interaction (ProQinase) EUB0000171b STK24
[5] = biological target: T3, Tyrosine-protein kinase Mer (Homo sapiens) (UniProt Q12866); assay: Selectivity interaction (Kinase panel (DSF assay)) EUB0001559a MERTK
T3 sequence (whole entry): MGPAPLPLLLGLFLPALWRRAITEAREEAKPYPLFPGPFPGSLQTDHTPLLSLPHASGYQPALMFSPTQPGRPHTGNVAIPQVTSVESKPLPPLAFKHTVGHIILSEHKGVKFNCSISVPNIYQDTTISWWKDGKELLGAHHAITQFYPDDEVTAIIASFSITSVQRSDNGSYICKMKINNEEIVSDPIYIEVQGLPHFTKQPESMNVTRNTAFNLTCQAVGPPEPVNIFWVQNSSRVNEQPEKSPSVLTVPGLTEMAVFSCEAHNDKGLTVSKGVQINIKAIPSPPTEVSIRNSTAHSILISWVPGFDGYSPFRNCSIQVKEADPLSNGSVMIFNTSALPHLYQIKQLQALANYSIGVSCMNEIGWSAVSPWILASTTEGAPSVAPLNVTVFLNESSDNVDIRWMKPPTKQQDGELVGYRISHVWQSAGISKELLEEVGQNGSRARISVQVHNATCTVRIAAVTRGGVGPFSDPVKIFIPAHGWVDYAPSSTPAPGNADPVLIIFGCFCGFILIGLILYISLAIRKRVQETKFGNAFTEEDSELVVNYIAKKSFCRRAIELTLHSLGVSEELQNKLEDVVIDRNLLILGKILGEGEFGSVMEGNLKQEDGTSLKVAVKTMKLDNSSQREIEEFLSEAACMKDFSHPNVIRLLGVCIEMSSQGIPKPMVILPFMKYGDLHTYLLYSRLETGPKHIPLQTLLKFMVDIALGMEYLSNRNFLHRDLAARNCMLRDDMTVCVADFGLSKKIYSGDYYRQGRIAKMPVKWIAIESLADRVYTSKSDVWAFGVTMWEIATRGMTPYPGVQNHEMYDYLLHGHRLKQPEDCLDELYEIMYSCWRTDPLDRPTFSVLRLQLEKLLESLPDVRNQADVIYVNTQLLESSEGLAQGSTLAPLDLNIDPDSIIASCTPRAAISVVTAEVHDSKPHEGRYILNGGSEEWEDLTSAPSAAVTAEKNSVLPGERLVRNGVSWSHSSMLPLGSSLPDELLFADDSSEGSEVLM

[6] = biological target: Casein kinase II subunit alpha' (Homo sapiens) (UniProt P19784); assay: Selectivity interaction (KinomeScan (DiscoverX)) EUB0000666a CSNK2A2; conditions: at 10 µM
[7] = biological target: Cyclin-dependent kinase 5 (Homo sapiens, UniProt Q00535); assay: Selectivity interaction (ActivX KiNativ screen (kinase selectivity in THP-1 cell lysates)) EUB0000639a CDK5; type: subcellular; conditions: lysate, at 0.2 µM
[8] = biological target: Fibroblast growth factor receptor 2 (Homo sapiens) (UniProt P21802); assay: Selectivity interaction (KinomeScan (DiscoverX)) EUB0000618a FGFR2; conditions: at 10 µM
Sequence of Fibroblast growth factor receptor 2 (Homo sapiens) (P21802 22-821 limits assumed): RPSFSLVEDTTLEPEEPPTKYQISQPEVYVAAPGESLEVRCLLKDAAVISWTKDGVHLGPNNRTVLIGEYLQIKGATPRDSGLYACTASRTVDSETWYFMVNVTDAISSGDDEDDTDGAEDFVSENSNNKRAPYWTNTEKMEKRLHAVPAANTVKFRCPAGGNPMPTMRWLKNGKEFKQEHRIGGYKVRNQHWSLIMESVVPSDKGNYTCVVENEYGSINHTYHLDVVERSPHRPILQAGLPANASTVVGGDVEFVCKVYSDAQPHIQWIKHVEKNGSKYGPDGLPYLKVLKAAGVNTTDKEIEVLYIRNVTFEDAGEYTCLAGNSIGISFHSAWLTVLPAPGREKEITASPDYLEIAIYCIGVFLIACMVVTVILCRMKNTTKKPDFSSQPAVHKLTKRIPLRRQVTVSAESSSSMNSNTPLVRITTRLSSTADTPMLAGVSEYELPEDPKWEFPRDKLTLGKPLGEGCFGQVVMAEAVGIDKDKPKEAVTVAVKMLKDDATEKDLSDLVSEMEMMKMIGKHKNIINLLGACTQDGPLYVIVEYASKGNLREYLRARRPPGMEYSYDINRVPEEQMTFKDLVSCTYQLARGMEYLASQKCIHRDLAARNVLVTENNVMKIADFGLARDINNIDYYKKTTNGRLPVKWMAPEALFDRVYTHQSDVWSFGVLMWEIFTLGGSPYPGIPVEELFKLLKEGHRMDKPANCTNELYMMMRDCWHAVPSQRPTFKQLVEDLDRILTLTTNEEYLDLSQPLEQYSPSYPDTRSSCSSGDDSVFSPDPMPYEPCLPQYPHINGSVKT

Sequence of Serine/threonine-protein kinase 24 (Homo sapiens) (Q9Y6E0 whole entry, looked up): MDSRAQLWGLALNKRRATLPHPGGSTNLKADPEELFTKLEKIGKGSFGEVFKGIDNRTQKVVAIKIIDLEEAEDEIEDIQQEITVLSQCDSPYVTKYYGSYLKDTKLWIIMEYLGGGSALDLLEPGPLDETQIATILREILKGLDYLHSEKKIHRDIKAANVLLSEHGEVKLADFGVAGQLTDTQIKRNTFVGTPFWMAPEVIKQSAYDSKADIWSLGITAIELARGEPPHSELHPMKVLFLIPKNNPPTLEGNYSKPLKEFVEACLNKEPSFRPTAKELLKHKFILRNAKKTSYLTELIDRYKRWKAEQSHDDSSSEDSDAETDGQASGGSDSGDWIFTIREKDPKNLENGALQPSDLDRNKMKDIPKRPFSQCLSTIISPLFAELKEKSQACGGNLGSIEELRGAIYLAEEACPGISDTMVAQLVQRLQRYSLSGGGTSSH
Sequence of Cyclin-dependent kinase 5 (Q00535 whole entry, looked up): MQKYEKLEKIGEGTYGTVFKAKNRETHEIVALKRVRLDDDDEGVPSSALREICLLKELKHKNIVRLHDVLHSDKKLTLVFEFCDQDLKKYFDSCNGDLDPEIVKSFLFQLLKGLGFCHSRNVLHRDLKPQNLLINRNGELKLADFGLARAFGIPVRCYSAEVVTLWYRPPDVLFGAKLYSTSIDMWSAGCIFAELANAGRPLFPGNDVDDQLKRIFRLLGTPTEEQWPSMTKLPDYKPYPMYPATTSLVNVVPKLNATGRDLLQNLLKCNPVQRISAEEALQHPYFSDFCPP
Sequence of Casein kinase II subunit alpha' (Homo sapiens) (P19784 whole entry, looked up): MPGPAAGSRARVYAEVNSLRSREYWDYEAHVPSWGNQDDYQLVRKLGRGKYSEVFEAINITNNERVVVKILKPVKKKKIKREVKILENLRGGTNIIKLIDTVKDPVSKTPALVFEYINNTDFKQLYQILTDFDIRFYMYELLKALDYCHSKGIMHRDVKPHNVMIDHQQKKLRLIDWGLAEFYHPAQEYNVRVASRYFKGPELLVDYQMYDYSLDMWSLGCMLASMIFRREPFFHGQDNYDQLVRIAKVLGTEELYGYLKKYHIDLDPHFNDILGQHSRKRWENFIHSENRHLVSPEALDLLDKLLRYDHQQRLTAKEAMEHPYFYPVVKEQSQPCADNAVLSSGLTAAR
Sequence of Tyrosine-protein kinase ABL2 (P42684 whole entry): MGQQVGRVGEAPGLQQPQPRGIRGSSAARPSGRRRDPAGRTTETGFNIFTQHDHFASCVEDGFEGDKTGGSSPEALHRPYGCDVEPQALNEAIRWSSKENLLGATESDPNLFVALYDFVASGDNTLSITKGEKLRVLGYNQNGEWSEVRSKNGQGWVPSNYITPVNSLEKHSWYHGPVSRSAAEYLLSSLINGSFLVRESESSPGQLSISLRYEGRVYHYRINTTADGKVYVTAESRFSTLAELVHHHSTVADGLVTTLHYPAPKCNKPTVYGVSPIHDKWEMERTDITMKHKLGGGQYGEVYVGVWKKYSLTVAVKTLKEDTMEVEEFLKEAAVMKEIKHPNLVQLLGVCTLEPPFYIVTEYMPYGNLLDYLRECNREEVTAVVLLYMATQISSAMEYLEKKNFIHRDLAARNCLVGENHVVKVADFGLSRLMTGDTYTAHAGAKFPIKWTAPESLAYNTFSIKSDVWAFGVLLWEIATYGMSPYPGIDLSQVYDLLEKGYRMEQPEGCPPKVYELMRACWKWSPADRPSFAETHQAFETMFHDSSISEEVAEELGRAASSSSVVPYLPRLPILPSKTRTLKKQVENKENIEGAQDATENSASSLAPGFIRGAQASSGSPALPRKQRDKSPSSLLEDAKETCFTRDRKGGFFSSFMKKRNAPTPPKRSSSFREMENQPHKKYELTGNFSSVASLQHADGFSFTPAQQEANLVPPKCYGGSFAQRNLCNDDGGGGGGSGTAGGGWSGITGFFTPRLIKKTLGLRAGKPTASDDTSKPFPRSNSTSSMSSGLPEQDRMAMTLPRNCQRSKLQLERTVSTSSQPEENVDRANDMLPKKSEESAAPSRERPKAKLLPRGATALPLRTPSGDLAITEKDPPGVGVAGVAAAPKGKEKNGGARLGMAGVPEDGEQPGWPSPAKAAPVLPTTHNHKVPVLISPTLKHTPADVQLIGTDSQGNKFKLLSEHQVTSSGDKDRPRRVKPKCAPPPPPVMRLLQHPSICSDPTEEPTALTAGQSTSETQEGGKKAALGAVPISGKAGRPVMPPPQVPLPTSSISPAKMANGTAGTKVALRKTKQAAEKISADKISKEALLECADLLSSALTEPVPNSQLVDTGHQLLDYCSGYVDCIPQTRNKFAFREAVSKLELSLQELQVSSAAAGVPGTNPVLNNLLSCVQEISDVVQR

COCCN1CCC(c2cc(CN(C)C(=O)c3cccc(Oc4ccccc4)c3)ccn2)CC1
IC50 [1]: > 3 nM

COc1cc(N(C)c2ccnc3ccc(C(F)(F)F)cc23)cc(OC)c1OC
% binding [2]: 64%

CN(C)CCOc1ccc(-c2nc(-c3ccncc3)c(-c3ccc4c(c3)CC/C4=N\O)[nH]2)cc1
% of control [3]: 55%

C=CC(=O)Nc1cccc(C(=O)Nc2ccc(Nc3cc(-c4[nH]c(SC)nc4C)ccn3)cc2)c1
% of control ([4]; at 1 µM): 85%
% of control ([4]; at 5 µM): 89%

CN(C(=O)c1cnn2cccnc12)c1cc2c(cc1N1CCOCC1)C(=O)N(C[C@@H](F)C(C)(C)O)C2
dTM [5]: 0.3 K

O=C(NOC[C@H](O)CO)c1ccc(F)c(F)c1Nc1ccc(I)cc1F
% of control [6]: 100%

CC[C@@H]1[C@H](F)C(=O)N[C@@H]1COc1nccc2cc(C(N)=O)c(OC)cc12 [ZIMLOVISERTIB]
% of inhibition [7]: -6.8%

O[C@H]1CC[C@H](Nc2ncc3nc(Nc4c(F)cc(F)cc4F)n([C@H]4CCOC4)c3n2)CC1
% of control [8]: 83%
